Reference: patent US4950818A, “Method for treating ulcer” (Kuraray Company, Ltd., priority 1988, dated 1990)

Experiments:
[1] = test system: HCl-ethanol-induced ulcer at the mucosa of the stomach; assay: Antiulcer activity (HCl-ethanol ulcer); type: in vivo, rats; conditions: rat, one hour before HCl-ethanol; for inhibition in vivo at 5 mg/kg: 5 mg/kg oral; for inhibition in vivo at 2.5 mg/kg: 2.5 mg/kg oral; for inhibition in vivo at 1 mg/kg: 1 mg/kg oral
Description: 1.5 ml of aqueous 60% ethanol solution containing 150 mM hydrochloric acid was orally administered to rats. One hour thereafter the rats were sacrificed and the length (mm) of HCl-ethanol-induced ulcer which was generated at the mucosa of the stomach was measured. Sum of the length of ulcer per animal is defined as ulcer coefficient. Specimens were each orally administered one hour before the HCl-ethanol administration. Inhibition rate was calculated by dividing the difference of ulcer coefficients of the control group and the specimen-administered group by the ulcer coefficient of the control group.

[2] = Acute toxicity (oral); conditions: mouse, in vivo, male ICR-strain mice
Description: Acute toxicity tests through oral administration were carried out using male ICR-strain mice (5 weeks old).

[3] = test system: pylorus ligation ulcer at the proventriculus part; assay: Antiulcer activity (pylorus ligation ulcer); type: in vivo, rats; conditions: rat, 100 mg/kg oral, 30 minutes before pylorus ligation; 13 hours
Description: After rats weighing 210 to 230 g were made to fast for 24 hours, each pylorus part was ligated under ether anesthesia according to Shay et al. method [Castroenterogy, 5, 43 (1945)]. After leaving for 13 hours the animals were sacrificed, and each ulcer which had been generated at the proventriculus part was macroscopicly observed and evaluated according to the following 5 steps of ulcer index:
2; There are hyperemia or 5 or less of small ulcers
(diameter less than 3 mm).
3; There are 5 or more of small ulcers or one large
ulcer (diameter equal to or more than 3 mm).
4; There are 2 or more of large ulcers.
Compound (1) (specimen) as prepared according to the method in Reference example and spizofurone as a control specimen were orally administered 30 minutes before the pylorus ligation. Inhibition rate was calculated by dividing the difference of ulcer coefficients of the control group and the specimen-administered group by the ulcer coefficient of the control group.

Cc1ccc(/C=C/C2=CC(=O)OC2O)cc1 (centres unmarked) [(2)]
inhibition in vivo at 5 mg/kg ([1]; 1 h, read-out: Inhibition rate): 98.3%

CCc1ccc(/C=C/C2=CC(=O)OC2O)cc1 (centres unmarked) [(4)]
inhibition in vivo at 2.5 mg/kg ([1]; 1 h, read-out: Inhibition rate): 86.2%

COc1ccc(/C=C/C2=CC(=O)OC2O)cc1 (centres unmarked) [(5)]
inhibition in vivo at 2.5 mg/kg ([1]; 1 h, read-out: Inhibition rate): 98.8%

COc1cccc(/C=C/C2=CC(=O)OC2O)c1OC (centres unmarked) [(6)]
inhibition in vivo at 1 mg/kg ([1]; 1 h, read-out: Inhibition rate): 59.8%

COc1ccc(OC)c(/C=C/C2=CC(=O)OC2O)c1 (centres unmarked) [(7)]
inhibition in vivo at 5 mg/kg ([1]; 1 h, read-out: Inhibition rate): 98.6%

O=C1C=C(/C=C/c2c(F)c(F)c(F)c(F)c2F)C(O)O1 (centres unmarked) [(8)]
inhibition in vivo at 1 mg/kg ([1]; 1 h, read-out: Inhibition rate): 67.4%

O=C1C=C(/C=C/c2ccc(F)cc2)C(O)O1 (centres unmarked) [(9)]
inhibition in vivo at 5 mg/kg ([1]; 1 h, read-out: Inhibition rate): 100%

O=C1C=C(/C=C/c2ccc(Cl)cc2)C(O)O1 (centres unmarked) [(10)]
inhibition in vivo at 5 mg/kg ([1]; 1 h, read-out: Inhibition rate): 100%

O=C1C=C(/C=C/c2cccc(Cl)c2)C(O)O1 (centres unmarked) [(11)]
inhibition in vivo at 2.5 mg/kg ([1]; 1 h, read-out: Inhibition rate): 91%

O=C1C=C(/C=C/c2ccc(Cl)cc2Cl)C(O)O1 (centres unmarked) [(12)]
inhibition in vivo at 5 mg/kg ([1]; 1 h, read-out: Inhibition rate): 54.1%

O=C1C=C(/C=C/c2ccc([N+](=O)[O-])cc2)C(O)O1 (centres unmarked) [(13)]
inhibition in vivo at 2.5 mg/kg ([1]; 1 h, read-out: Inhibition rate): 34.1%

N#Cc1ccc(/C=C/C2=CC(=O)OC2O)cc1 (centres unmarked) [(15)]
inhibition in vivo at 5 mg/kg ([1]; 1 h, read-out: Inhibition rate): 99.4%

O=C1C=C(/C=C/c2cccc(O)c2)C(O)O1 (centres unmarked) [(16)]
inhibition in vivo at 2.5 mg/kg ([1]; 1 h, read-out: Inhibition rate): 42.7%

O=C1C=C(/C=C/c2ccccc2)C(O)O1 (centres unmarked) [Compound (1), 5-hydroxy-4-[2-phenyl-(E)-ethenyl]-2(5H)-furanone]
inhibition in vivo at 5 mg/kg ([1]; 1 h, read-out: Inhibition rate): 97.9% | LD50 [2]: ≥ 2000 mg/kg | Inhibition rate [3]: 80.3%

Cc1cc(C)c(/C=C/C2=CC(=O)OC2O)c(C)c1 (centres unmarked) [Compound (3)]
inhibition in vivo at 5 mg/kg ([1]; 1 h, read-out: Inhibition rate): 100%

CC(=O)c1ccc2c(c1)C(=O)C1(CC1)O2 [Spizofurone, reference compound]
Inhibition rate ([1]; 100 mg/kg oral): 86.6% | Inhibition rate [3]: 1.5%

CC(=O)CCC=C(C)CCC=C(C)CCC=C(C)CCC=C(C)C [Teprenone, reference compound]
inhibition in vivo at 25 mg/kg ([1]; 1 h, 25 mg/kg oral, read-out: Inhibition rate): 48.9%
